Experiments:
[1] = Cytotoxicity, MTT assay, PBMCs; type: cell-based; settings: human, PBMC, seven days, read-out: CC50 (Mean ± SD)
[2] = test system: HIV-1IIIB chronically infected H9 cells; assay: HIV-1 replication in chronically infected H9/HIV-1IIIB cells, p24; type: cell-based
[3] = test system: C8166 cells infected with HIV-1IIIB or TZM-bl cells infected with HIV-1YU-2; assay: Combination antiviral activity assay (CompuSyn CI and DRI); type: cell-based
[4] = test system: HIV-1IIIB; assay: Anti-HIV-1 activity in the presence of human serum, p24 in C8166; settings: Human immunodeficiency virus 1, C8166, HIV-1IIIB
[5] = Cytotoxicity, MTT assay, MT-4 cells; type: cell-based; settings: human, three days, read-out: CC50 (Mean ± SD)
[6] = biological target: CYP3A4M (Homo sapiens, UniProt P08684); assay: Cytochrome P450 inhibition, human liver microsomes, midazolam
Chain of CYP3A4M (P08684 whole entry): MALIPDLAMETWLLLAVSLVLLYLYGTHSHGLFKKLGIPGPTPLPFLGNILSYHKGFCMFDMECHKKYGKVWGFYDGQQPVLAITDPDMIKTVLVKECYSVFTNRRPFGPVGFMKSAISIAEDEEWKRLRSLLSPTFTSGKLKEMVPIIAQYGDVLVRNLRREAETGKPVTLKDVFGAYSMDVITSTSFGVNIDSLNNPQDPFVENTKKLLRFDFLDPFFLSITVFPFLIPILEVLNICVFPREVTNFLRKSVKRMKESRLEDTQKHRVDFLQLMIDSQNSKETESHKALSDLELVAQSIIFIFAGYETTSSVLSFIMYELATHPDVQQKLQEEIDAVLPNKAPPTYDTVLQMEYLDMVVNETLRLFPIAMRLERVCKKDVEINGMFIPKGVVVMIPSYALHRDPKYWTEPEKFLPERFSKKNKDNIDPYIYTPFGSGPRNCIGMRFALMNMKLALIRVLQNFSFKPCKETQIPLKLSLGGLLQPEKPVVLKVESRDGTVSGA

[7] = test system: HIV-1IIIB; assay: Anti-HIV-1 activity, syncytia (CPE) count in C8166 cells; type: cell-based; settings: Human immunodeficiency virus 1
[8] = test system: HIV-1IIIB; assay: Anti-HIV-1 activity, MTT protection of MT-4 cells; type: cell-based; settings: Human immunodeficiency virus 1, MT4, MT-4, MTT
[9] = biological target: CYP2D6 (Homo sapiens, UniProt P10635); assay: Cytochrome P450 inhibition, human liver microsomes, dextromethorphan
Chain of CYP2D6 (P10635 whole entry): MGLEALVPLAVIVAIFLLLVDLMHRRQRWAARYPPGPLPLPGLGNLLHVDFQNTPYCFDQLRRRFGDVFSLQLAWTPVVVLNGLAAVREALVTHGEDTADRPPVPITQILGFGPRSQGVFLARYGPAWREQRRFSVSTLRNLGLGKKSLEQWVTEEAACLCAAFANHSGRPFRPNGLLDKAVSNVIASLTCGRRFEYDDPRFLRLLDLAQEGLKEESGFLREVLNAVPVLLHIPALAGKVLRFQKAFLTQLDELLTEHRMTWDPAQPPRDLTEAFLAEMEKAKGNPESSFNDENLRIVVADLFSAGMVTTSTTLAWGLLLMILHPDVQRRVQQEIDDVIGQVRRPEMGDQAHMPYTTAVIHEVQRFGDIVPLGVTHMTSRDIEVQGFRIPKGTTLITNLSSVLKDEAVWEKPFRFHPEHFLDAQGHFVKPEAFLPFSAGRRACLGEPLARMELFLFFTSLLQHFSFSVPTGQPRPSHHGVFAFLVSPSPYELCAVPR

[10] = biological target: T1, CYP1A2 (Homo sapiens, UniProt P05177); assay: Cytochrome P450 inhibition, human liver microsomes, phenacetin
T1 sequence (P05177 1-516): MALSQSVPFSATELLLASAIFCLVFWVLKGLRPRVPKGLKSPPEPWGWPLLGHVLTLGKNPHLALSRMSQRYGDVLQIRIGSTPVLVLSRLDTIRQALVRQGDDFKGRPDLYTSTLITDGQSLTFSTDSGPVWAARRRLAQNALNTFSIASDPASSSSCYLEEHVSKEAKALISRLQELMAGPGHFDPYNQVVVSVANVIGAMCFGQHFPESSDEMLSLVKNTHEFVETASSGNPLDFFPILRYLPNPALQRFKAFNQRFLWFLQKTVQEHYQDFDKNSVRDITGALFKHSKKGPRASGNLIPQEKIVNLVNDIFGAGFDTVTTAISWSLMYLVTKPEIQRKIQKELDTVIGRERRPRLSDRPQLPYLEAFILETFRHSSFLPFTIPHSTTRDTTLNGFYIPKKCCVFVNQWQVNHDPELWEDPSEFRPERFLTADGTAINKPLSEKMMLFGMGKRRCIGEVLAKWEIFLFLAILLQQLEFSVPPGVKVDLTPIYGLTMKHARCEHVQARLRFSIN

[11] = test system: HIV-1Yu-2(G140S/Q148H); assay: microbe, parasite or virus in culture; type: cell-based; settings: Human immunodeficiency virus 1, TZM-bl
[12] = biological target: CYP2C19 (Homo sapiens, UniProt P33261); assay: Cytochrome P450 inhibition, human liver microsomes, S-mephenytoin
Chain of CYP2C19 (P33261 whole entry): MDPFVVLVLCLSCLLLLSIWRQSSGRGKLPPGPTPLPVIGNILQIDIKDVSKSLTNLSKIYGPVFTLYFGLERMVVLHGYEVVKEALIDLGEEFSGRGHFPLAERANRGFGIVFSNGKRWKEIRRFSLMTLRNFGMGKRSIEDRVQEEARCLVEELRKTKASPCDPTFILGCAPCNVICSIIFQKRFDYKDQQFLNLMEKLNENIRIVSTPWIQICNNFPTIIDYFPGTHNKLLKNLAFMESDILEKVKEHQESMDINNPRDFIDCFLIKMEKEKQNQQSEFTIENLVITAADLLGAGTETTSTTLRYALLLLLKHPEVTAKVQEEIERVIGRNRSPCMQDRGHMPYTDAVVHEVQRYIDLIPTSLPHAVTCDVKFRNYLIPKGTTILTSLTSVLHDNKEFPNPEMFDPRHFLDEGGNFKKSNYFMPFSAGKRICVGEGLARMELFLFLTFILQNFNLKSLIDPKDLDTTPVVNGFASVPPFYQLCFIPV

[13] = Cytotoxicity, MTT assay, C8166 cells; type: cell-based; settings: human, three days, read-out: CC50 (Mean ± SD)
[14] = biological target: CYP2C9 (Homo sapiens, UniProt P11712); assay: Cytochrome P450 inhibition, human liver microsomes, diclofenac
Chain of CYP2C9 (P11712 whole entry): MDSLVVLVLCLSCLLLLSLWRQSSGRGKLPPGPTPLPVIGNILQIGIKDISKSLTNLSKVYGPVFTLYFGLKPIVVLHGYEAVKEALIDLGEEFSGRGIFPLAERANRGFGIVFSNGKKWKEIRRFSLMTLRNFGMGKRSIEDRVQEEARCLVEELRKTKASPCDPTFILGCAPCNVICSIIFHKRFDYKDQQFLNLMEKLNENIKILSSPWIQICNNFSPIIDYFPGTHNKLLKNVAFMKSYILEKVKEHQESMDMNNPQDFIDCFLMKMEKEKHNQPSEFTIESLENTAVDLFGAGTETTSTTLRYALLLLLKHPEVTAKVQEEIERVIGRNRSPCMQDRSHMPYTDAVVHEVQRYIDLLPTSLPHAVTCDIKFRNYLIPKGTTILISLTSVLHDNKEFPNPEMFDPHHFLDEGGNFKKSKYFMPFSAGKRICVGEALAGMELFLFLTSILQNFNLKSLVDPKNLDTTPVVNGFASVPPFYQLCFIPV

[15] = Cytotoxicity, MTT assay, H9/HIV-1IIIB cells; type: cell-based; settings: human, three days, read-out: CC50 (Mean ± SD)
[16] = Acute toxicity, single intragastric dose; type: in vivo; settings: male and female BALB/C mice
[17] = single drug in combination K-5a2+3TC
[18] = single drug in combination K-5a2+AZT
[19] = single drug in combination K-5a2+DC521022
[20] = single drug in combination K-5a2+DRV
[21] = single drug in combination K-5a2+DTG
[22] = single drug in combination K-5a2+ETR
[23] = single drug in combination K-5a2+FTC
[24] = single drug in combination K-5a2+MVC
[25] = single drug in combination K-5a2+RAL
[26] = single drug in combination K-5a2+T-20
[27] = single drug in combination K-5a2+TDF

Cc1cc(C#N)cc(C)c1Oc1nc(NC2CCN(Cc3ccc(S(N)(=O)=O)cc3)CC2)nc2ccsc12 [K-5a2]
CC50 at 7 days [1]: 39.7 ± 6.29 µM
EC50 ([2]; Human immunodeficiency virus 1, HIV-1IIIB, H9/HIV-1IIIB chronically infected, p24): > 50 µM
Inhibition of HIV-1 replication in HIV-1IIIB chronically infected H9 cells ([2]; at a concentration of 50.00 µM): could not inhibit the replication
DRI Value ED75 [3, 17]: 2.79 ± 0.14
DRI Value ED90 [3, 17]: 2.81 ± 0.58
DRI Value ED95 [3, 17]: 2.85 ± 0.93
DRI Value ED75 [3, 18]: 13.26 ± 9.86
DRI Value ED90 [3, 18]: 7.60 ± 3.58
DRI Value ED95 [3, 18]: 5.48 ± 2.08
DRI Value ED75 [3, 19]: 1.61 ± 0.50
DRI Value ED90 [3, 19]: 1.71 ± 0.48
DRI Value ED95 [3, 19]: 1.78 ± 0.47
DRI Value ED75 [3, 20]: 2.26 ± 0.28
DRI Value ED90 [3, 20]: 2.57 ± 0.19
DRI Value ED95 [3, 20]: 2.85 ± 0.57
DRI Value ED75 [3, 21]: 1.69 ± 0.37
DRI Value ED90 [3, 21]: 1.94 ± 0.10
DRI Value ED95 [3, 21]: 2.19 ± 0.50
DRI Value ED75 [3, 22]: 1.47 ± 0.24
DRI Value ED90 [3, 22]: 1.40 ± 0.12
DRI Value ED95 [3, 22]: 1.35 ± 0.07
DRI Value ED75 [3, 23]: 5.00 ± 0.71
DRI Value ED90 [3, 23]: 3.58 ± 0.51
DRI Value ED95 [3, 23]: 2.85 ± 0.41
DRI Value ED75 [3, 24]: 1.30 ± 0.17
DRI Value ED90 [3, 24]: 1.28 ± 0.15
DRI Value ED95 [3, 24]: 1.27 ± 0.15
DRI Value ED75 [3, 25]: 2.45 ± 0.95
DRI Value ED90 [3, 25]: 2.47 ± 0.85
DRI Value ED95 [3, 25]: 2.49 ± 0.79
DRI Value ED75 [3, 26]: 5.13 ± 0.38
DRI Value ED90 [3, 26]: 4.68 ± 0.43
DRI Value ED95 [3, 26]: 4.43 ± 0.75
DRI Value ED75 [3, 27]: 2.30 ± 0.73
DRI Value ED90 [3, 27]: 2.15 ± 0.47
DRI Value ED95 [3, 27]: 2.06 ± 0.33
EC50 ([4]; C8166, p24, 20% human serum): 7.83 ± 1.73 nM
EC50 ([4]; C8166, p24, 40% human serum): 7.87 ± 6.01 nM
CC50 at 3 days [5]: 26.6 ± 2.03 µM
IC50 [6]: 18.9 µM
EC50 [7]: 1.88 ± 0.87 nM
EC50 [8]: 1.74 ± 0.11 nM
IC50 [9]: > 50 µM
IC50 [10]: > 50 µM
EC50 [11]: 0.26 ± 0.28 nM
IC50 [12]: > 50 µM
CC50 at 3 days [13]: > 50 µM
IC50 [14]: > 50 µM
CC50 at 3 days [15]: 28.1 ± 5.03 µM
MTD ([16]; both, mouse, in vivo, po, 5000 mg/kg, single gavage dose, read-out: Maximum tolerated dose): > 5000 mg/kg
Clinical symptoms and body weight ([16]; single gavage dose of 5000 mg/kg): no obvious clinical symptoms and no obvious abnormalities in body weight

From PMC9699427 (Viruses, 2022)
